Reference: ChEMBL document CHEMBL1133240, “Michael adducts of ascorbic acid as inhibitors of protein phosphatase 2A and inducers of apoptosis” (Bioorg Med Chem Lett, 2000)

Tests used:
HIT [1] = assay: Inhibitory concentration against casein dephosphorylation (casein is a substrate of PP-2A) by a HIT cell extract; assay type: functional, cell-free; details: Homo sapiens
HIT [2] = assay: Compound was evaluated for inhibitory effect against casein dephosphorylation (casein is a substrate of PP-2A) by a HIT cell extract at 1000 uM; Some inhibition; assay type: functional, cell-based; details: Homo sapiens
[3] = Compound was evaluated for inhibitory effect against casein dephosphorylation (casein is a substrate of PP-2A) by a HIT cell extract with Okadaic acid (225 nM) or Cantharidic acid (100 uM); assay type: functional, cell-based, Homo sapiens
[4] = Lethal dose was evaluated in HIT 100R cells; assay type: toxicity, cell-based; details: human, read-out: LC50 (the source's name)
[5] = Lethal dose was evaluated in parental HIT cells; assay type: toxicity, cell-based; details: read-out: LC50 (the source's name)
[6] = Compound was evaluated for inhibitory effect against casein dephosphorylation (casein is a substrate of PP-2A) by a HIT cell extract at 100 uM; assay type: functional; details: Homo sapiens
[7] = Compound was evaluated for inhibitory effect against casein dephosphorylation (casein is a substrate of PP-2A) by a HIT cell extract relative to cantharidic acid (100 uM); assay type: functional, cell-based, Homo sapiens

C=C1[C@@H](O)[C@@H]2O[C@]3(CC[C@H](/C=C/[C@@H](C)[C@@H]4CC(C)=C[C@@]5(O[C@H](C[C@@](C)(O)C(=O)O)CC[C@H]5O)O4)O3)CC[C@H]2O[C@@H]1[C@@H](O)C[C@H](C)[C@H]1O[C@@]2(CCCCO2)CC[C@H]1C
Concentration (HIT [1]): 225 nM

CCCCCCCCCCCCCCCC(=O)OC[C@@H](O)[C@H]1OC(=O)[C@]2(CCC(OC(C)C)O2)C1=O (some centres undefined)
inhibition (HIT [2]): Some inhibition

CCCCCCCCCCCCCCCC(=O)OC[C@@H](O)[C@H]1OC(=O)[C@]2(O)CCC(O)O[C@]12OC (some centres undefined)
IC50 [3]: 175 µM | CC50 [4]: 126 µM | CC50 [5]: 100 µM | inhibition at 100 µM [6]: 40%

O=C1O[C@@H]2[C@@H](O)CO[C@]2(O)[C@@]1(O)C(C[N+](=O)[O-])c1ccc(Cl)cc1 (some centres undefined)
IC50 [7]: 70 µM | CC50 [4]: 7.9 µM | CC50 [5]: 5.6 µM
